Laboratory results from the NIST ThermoML archive (doi:10.1016/j.jct.2010.05.002).

Test: molar heat capacity at constant pressure
Settings: 101.33 kPa, Vacuum adiabatic calorimetry

CC(C)(C)c1ccc(-c2ccccc2)cc1 [4-(1,1-dimethylethyl)-1,1'-biphenyl]
Settings | molar heat capacity at constant pressure [J/K/mol]
156.5 K, Crystal | 164.59
157.48 K, Crystal | 165.54
158.46 K, Crystal | 168.2
159.4 K, Crystal | 167.88
160.49 K, Crystal | 170.03
162.35 K, Crystal | 170.22
163.32 K, Crystal | 171.45
164.3 K, Crystal | 171.68
165.27 K, Crystal | 172.24
166.24 K, Crystal | 173.77
167.21 K, Crystal | 175.03
168.17 K, Crystal | 175.74
169.13 K, Crystal | 176.91
170.1 K, Crystal | 177.85
171.06 K, Crystal | 178.74
172.03 K, Crystal | 179.57
172.99 K, Crystal | 180.33
173.96 K, Crystal | 181.16
174.88 K, Crystal | 181.91
175.84 K, Crystal | 182.48
176.8 K, Crystal | 183.39
177.75 K, Crystal | 184.41
178.71 K, Crystal | 186.15
179.67 K, Crystal | 186.69
180.62 K, Crystal | 187.72
181.58 K, Crystal | 187.66
182.53 K, Crystal | 188.58
183.48 K, Crystal | 190.07
184.43 K, Crystal | 190.57
185.38 K, Crystal | 191.97
186.33 K, Crystal | 192.5
187.27 K, Crystal | 193.52
188.22 K, Crystal | 194.65
189.16 K, Crystal | 195.58
190.05 K, Crystal | 196.73
190.99 K, Crystal | 197.88
191.93 K, Crystal | 198.13
192.87 K, Crystal | 199.81
193.81 K, Crystal | 200.3
194.75 K, Crystal | 200.51
195.68 K, Crystal | 201.32
196.61 K, Crystal | 203.32
197.55 K, Crystal | 203.52
198.48 K, Crystal | 205.18
199.41 K, Crystal | 205.85
200.34 K, Crystal | 205.72
201.52 K, Crystal | 207.22
202.94 K, Crystal | 208.68
204.37 K, Crystal | 210.19
205.79 K, Crystal | 211.33
207.14 K, Crystal | 212.7
208.55 K, Crystal | 214.44
209.96 K, Crystal | 215.21
211.37 K, Crystal | 217.19
212.78 K, Crystal | 218.22
214.19 K, Crystal | 219.53
215.59 K, Crystal | 220.68
216.99 K, Crystal | 222.17
218.39 K, Crystal | 224.18
219.79 K, Crystal | 225.72
221.18 K, Crystal | 226.72
222.9 K, Crystal | 227.94
224.62 K, Crystal | 229.7
226 K, Crystal | 231.67
227.39 K, Crystal | 232.23
228.77 K, Crystal | 233.85
230.14 K, Crystal | 234.83
231.52 K, Crystal | 236.49
232.88 K, Crystal | 237.84
234.25 K, Crystal | 239.02
235.61 K, Crystal | 240.58
236.97 K, Crystal | 241.66
238.33 K, Crystal | 243.18
239.69 K, Crystal | 244.52
241.05 K, Crystal | 245.68
242.4 K, Crystal | 247.57
243.75 K, Crystal | 248.49
244.98 K, Crystal | 249.71
246.33 K, Crystal | 251.82
247.66 K, Crystal | 253.81
249 K, Crystal | 254.6
250.34 K, Crystal | 256.26
251.68 K, Crystal | 256.95
253.01 K, Crystal | 258.51
254.34 K, Crystal | 259.55
255.66 K, Crystal | 261.49
256.97 K, Crystal | 262.33
258.29 K, Crystal | 263.11
259.61 K, Crystal | 265.21
260.92 K, Crystal | 267.1
262.23 K, Crystal | 268.4
263.54 K, Crystal | 269.72
264.84 K, Crystal | 270.96
265.99 K, Crystal | 271.74
267.28 K, Crystal | 273.32
268.57 K, Crystal | 275.22
269.86 K, Crystal | 276.29
271.15 K, Crystal | 277.98
272.43 K, Crystal | 280.14
273.71 K, Crystal | 281.15
274.98 K, Crystal | 281.51
276.26 K, Crystal | 282.58
277.52 K, Crystal | 284.25
278.79 K, Crystal | 285.49
280.04 K, Crystal | 286.95
281.3 K, Crystal | 288.13
282.55 K, Crystal | 289.87
283.8 K, Crystal | 290.87
285.04 K, Crystal | 291.7
286.08 K, Crystal | 293.13
287.32 K, Crystal | 295.16
288.53 K, Crystal | 295.47
289.76 K, Crystal | 296.85
292.2 K, Crystal | 299.34
293.41 K, Crystal | 300.48
294.63 K, Crystal | 301.51
295.83 K, Crystal | 302.32
297.03 K, Crystal | 303.76
298.23 K, Crystal | 303.58
299.42 K, Crystal | 305.47
300.61 K, Crystal | 306.04
301.79 K, Crystal | 308.28
302.89 K, Crystal | 309.67
303.99 K, Crystal | 310.47
305.04 K, Crystal | 312.55
306.34 K, Crystal | 313.92
307.46 K, Crystal | 315.51
308.62 K, Crystal | 315.74
309.76 K, Crystal | 319.18
310.9 K, Crystal | 320.42
312.03 K, Crystal | 320.51
313.15 K, Crystal | 321.63
314.25 K, Crystal | 323.46
315.35 K, Crystal | 326.54
316.44 K, Crystal | 326.58
317.52 K, Crystal | 328.97
318.58 K, Crystal | 333.26
325.87 K, Liquid | 381
327.07 K, Liquid | 382.02
328.07 K, Liquid | 382.22
329.06 K, Liquid | 382.84
330.05 K, Liquid | 383.2
331.03 K, Liquid | 383.56
332.01 K, Liquid | 384.21
332.98 K, Liquid | 384.73
333.94 K, Liquid | 386.4
334.9 K, Liquid | 386.26
335.85 K, Liquid | 387.48
336.8 K, Liquid | 388
337.74 K, Liquid | 388.46
338.68 K, Liquid | 388.8
339.61 K, Liquid | 389.81
340.53 K, Liquid | 390.68
340.99 K, Liquid | 390.97
341.91 K, Liquid | 391.9
342.82 K, Liquid | 392.95
343.73 K, Liquid | 393.35
344.62 K, Liquid | 393.96
345.52 K, Liquid | 394.82
346.4 K, Liquid | 396.04
347.28 K, Liquid | 396.15
348.16 K, Liquid | 397.03
349.03 K, Liquid | 396.87
349.89 K, Liquid | 397.86
350.75 K, Liquid | 398.4
351.6 K, Liquid | 397.8
352.45 K, Liquid | 397.92
354.12 K, Liquid | 401.27
354.41 K, Liquid | 401.25
355.24 K, Liquid | 400.85
356.06 K, Liquid | 400.95
356.87 K, Liquid | 401.61
357.67 K, Liquid | 402.4
358.47 K, Liquid | 402.62
359.27 K, Liquid | 402.51
360.06 K, Liquid | 402.5
360.84 K, Liquid | 404.15
361.61 K, Liquid | 405.1
362.38 K, Liquid | 405.27
363.15 K, Liquid | 406.09
363.91 K, Liquid | 406.9
364.66 K, Liquid | 406.47
365.41 K, Liquid | 407.47
366.15 K, Liquid | 407.61
366.27 K, Liquid | 407.63
367.01 K, Liquid | 406.87
367.73 K, Liquid | 408.31
368.45 K, Liquid | 410.51
369.17 K, Liquid | 410.57
369.88 K, Liquid | 409.74
370.58 K, Liquid | 410.84
